Publication PMC1989143, “An Expanded Set of Amino Acid Analogs for the Ribosomal Translation of Unnatural Peptides” (PLoS ONE, 2007)

Key:
ThrRS = molecular target: T1, ThrRS (Escherichia coli, UniProt P0A8M3); assay: tRNA aminoacylation competition assay, MALDI-TOF MS; format: biochemical; conditions: 50000 µM; 50 µM natural Thr (Table 3), 6 mM ATP, 17 mM MgCl2, E. coli total tRNA, pH 7.4, 37 °C; competitive
T1 construct: gene thrS; His-tagged, recombinant, purified
Source text: tRNA aminoacylation competition assay, MALDI-TOF MS on ThrRS

PheRS = molecular target: T2, PheRS (Escherichia coli, UniProt P08312); assay: as above; format: biochemical; conditions: 5000 µM; 5 µM natural Phe (Table 3), 6 mM ATP, 17 mM MgCl2, E. coli total tRNA, pH 7.4, 37 °C; competitive
T2 construct: gene pheS; His-tagged, recombinant, purified; wild-type enzyme; with Phenylalanine--tRNA ligase beta subunit
T2 sequence (P08312 whole entry): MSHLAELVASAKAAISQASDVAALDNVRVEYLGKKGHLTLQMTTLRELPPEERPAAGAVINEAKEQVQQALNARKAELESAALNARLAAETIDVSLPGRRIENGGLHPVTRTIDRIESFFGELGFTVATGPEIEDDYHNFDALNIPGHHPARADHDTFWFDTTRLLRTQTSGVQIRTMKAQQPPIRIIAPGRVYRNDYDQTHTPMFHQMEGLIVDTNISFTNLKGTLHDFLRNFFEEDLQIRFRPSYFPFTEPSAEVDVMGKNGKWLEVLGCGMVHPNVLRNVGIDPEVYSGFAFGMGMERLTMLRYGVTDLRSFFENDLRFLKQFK
T2 sequence (P07395 whole entry partner): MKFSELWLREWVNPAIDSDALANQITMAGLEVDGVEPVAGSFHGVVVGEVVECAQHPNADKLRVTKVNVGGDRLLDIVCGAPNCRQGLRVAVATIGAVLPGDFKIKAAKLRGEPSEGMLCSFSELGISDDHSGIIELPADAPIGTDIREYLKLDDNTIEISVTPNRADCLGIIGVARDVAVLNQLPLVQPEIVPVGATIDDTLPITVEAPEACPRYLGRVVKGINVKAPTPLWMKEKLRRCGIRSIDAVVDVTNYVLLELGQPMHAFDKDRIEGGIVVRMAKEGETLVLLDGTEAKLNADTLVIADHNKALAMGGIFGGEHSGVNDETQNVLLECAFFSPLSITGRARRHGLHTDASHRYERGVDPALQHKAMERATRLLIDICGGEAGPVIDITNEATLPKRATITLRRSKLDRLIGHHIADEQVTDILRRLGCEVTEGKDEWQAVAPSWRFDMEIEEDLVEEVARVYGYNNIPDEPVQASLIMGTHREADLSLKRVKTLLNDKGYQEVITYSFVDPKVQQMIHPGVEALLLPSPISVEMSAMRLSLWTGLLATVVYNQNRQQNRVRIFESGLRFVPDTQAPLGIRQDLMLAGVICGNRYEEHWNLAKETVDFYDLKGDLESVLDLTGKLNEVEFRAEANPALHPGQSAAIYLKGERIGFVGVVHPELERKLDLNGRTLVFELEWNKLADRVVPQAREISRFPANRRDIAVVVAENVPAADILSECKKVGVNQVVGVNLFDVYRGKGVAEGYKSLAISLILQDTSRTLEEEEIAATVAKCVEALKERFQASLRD
Source text: tRNA aminoacylation competition assay, MALDI-TOF MS on PheRS

T1 sequence (P0A8M3 whole entry): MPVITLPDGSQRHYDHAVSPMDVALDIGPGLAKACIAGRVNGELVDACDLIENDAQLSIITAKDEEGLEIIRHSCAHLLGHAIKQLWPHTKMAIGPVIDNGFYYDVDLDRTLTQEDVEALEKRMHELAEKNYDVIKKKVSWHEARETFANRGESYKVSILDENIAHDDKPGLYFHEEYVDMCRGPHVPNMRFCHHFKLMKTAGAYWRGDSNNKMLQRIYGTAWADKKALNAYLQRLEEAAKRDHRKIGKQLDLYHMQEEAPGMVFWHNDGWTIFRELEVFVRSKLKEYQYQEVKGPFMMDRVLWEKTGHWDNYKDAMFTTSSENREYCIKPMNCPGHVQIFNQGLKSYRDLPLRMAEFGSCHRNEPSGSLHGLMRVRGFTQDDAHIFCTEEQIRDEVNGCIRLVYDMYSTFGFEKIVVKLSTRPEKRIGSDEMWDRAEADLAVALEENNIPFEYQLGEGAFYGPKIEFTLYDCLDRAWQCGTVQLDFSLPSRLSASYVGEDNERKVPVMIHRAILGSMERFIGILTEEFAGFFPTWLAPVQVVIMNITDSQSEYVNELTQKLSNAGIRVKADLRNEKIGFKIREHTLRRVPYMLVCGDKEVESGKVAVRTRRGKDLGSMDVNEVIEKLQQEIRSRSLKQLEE

Row | SMILES | % Inhibition ^b (ThrRS) | % Inhibition ^b (PheRS)
1 | CCC(O)C(N)C(=O)O (racemic) [P5, DL-β-hydroxy norvaline] | 92 (range 2.9) % | –
2 | NC(Cc1ccccc1F)C(=O)O (centres unmarked) [A5, 2-fluoro Phe] | – | 78 (range 2.1) %
